Literature values in patent US8052982B2, “Bioimplant formulation comprising lecithin and stearin” (Peptech Animal Health PTY Limited, priority 1998, dated 2011).

| log octanol/water partition (log P) | SMILES |
| --- | --- |
| −1.86 | C[C@H](CS)C(=O)N1CCC[C@H]1C(=O)O [captopril] |
| 0.35 | Cn1c(=O)c2c(ncn2CCO)n(C)c1=O [etofylline] |
| 1.14 | O=C(O)c1ccccc1Nc1cccc(C(F)(F)F)c1 [flufenamic acid] |
| −0.36 | CCC[C@H](N[C@@H](C)C(=O)N1[C@H](C(=O)O)C[C@@H]2CCCC[C@@H]21)C(=O)O [perindoprilate] |
| 0.69 | C[C@H](N[C@@H](CCc1ccccc1)C(=O)O)C(=O)N1Cc2ccccc2C[C@H]1C(=O)O [quinaprilate] |
| 1.02 | C[C@H](N[C@@H](CCc1ccccc1)C(=O)O)C(=O)N1[C@H](C(=O)O)C[C@H]2CCCC[C@@H]21 [trandolaprilate] |

| SMILES | log octanol/water partition (log P) |
| --- | --- |
| C[C@@H](O)[C@@H]1NC(=O)[C@H](CCCCN)NC(=O)[C@@H](Cc2c[nH]c3ccccc23)NC(=O)[C@H](Cc2ccccc2)NC(=O)[C@@H](NC(=O)[C@H](N)Cc2ccccc2)CSSC[C@@H](C(=O)N[C@H](CO)[C@@H](C)O)NC1=O [octreotide] | 1.40 |
| CC(CN1c2ccccc2Sc2ccccc21)N(C)C (centres unmarked) [promethazine] | 4.75 |
